What all share (test): NCI-60 cell line screen, 48 h
Assay [1] has as its system DU-145 prostate.
In assay [2] the test system is NCI-H23 lung.
Assay [3] relates to OVCAR-4 ovarian.
For assay [4], the system named is HL-60(TB) leukemia.
For assay [5], the system named is MDA-MB-435.
The test system of assay [6] is SK-MEL-2 melanoma.
Assay [7] deals with SF-268 CNS.
Assay [8] relates to SF-539 CNS.
In assay [9] the test system is PC-3 prostate.
The subject of assay [10] is IGROV1 ovarian.

Values joined by “and” are separate entries in the source; they are usually repeats but may differ in a detail not shown here. Equal values may be shown once.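 Five compound concentrations were applied to cells in 96-well plates for 48 hours; endpoints were derived by simple linear interpolation of the resulting dose-response curve. GI50 is the concentration that inhibits growth by half. TGI: total growth inhibition.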

Take `CCOc1ccc2c(c1)C(=O)c1c-2n(CCCN)c(=O)c2cc([N+](=O)[O-])ccc12`: the GI50 is below 0.0107 µM in assay [1]; 0.0425 µM in assay [2]; 0.527 µM in [3]; 0.314 µM in assay [4]; 0.294 µM in assay [5]; 1.53 µM in assay [6]. Besides, the GI50 in assay [7] was 0.0115 µM; in [8], 0.0517 µM; in [9], 0.297 µM. Besides, the TGI amounted to 0.213 µM in [1]; 0.473 µM in assay [2]; 2.18 µM in assay [3]; 2.4 µM in assay [4]; 1.95 µM in [5]; 3.27 µM in assay [6]. Besides, the TGI in [7] was 1.06 µM; in [8], 0.209 µM; in assay [9], 2.14 µM.

As for `COc1cccc2c1C(=O)c1c(O)c3c(c(O)c1C2=O)C[C@@](O)(C(C)=O)C[C@@H]3OC1CC(O)C(O)C(C)O1` (some centres not stated), the TGI is 8.55 µM in assay [1]; 6.17 µM and 4.32 µM in [2]; 9.94 µM and 16.9 µM in assay [3]; 1.94 µM and 1.2 µM in assay [4]; 27.7 µM in assay [5]; 9.44 µM and 15.2 µM in assay [6]. In addition, the TGI in assay [7] was 9.38 µM and 12.8 µM; in assay [8], 9.15 µM and 10.2 µM; in [9], 31.9 µM.

For the compound `CSC(=NC#N)S/C=C/C(=O)c1cccc2ccccc12`, the GI50 in [1] is 39.1 µM; in assay [10] it was 21 µM; in assay [3] it was 47.9 µM; in assay [5] it was 24.5 µM; in assay [6], 34.3 µM; in [7], 36.6 µM. Also, the GI50 in assay [8] is 17.6 µM; in assay [9] it was 31.3 µM. Besides, the TGI is above 100 µM in assay [1]; 48.1 µM in assay [10]; above 100 µM in assay [3]; 85.5 µM in assay [5]; above 100 µM in assay [6]; above 100 µM in assay [7]. Further, the TGI in [8] came to 68.2 µM; in [9], 99 µM.

On to `COc1cc2c(c(OC)c1OC)C(=O)c1c-2n(CCCN=[N+]=[N-])c(=O)c2cc([N+](=O)[O-])ccc12`, for which the GI50 in assay [1] was above 100 µM; in assay [10] it was 24.3 µM; in assay [2] it was 50.8 µM; in [3], 46.8 µM; in assay [4], above 100 µM; in assay [5] it was above 100 µM. Also, the values for the GI50 in [6], in [7] and in assay [8] were 22.8 µM, 29.8 µM and 39.2 µM, respectively. For the same compound, the TGI in assay [1], in [10], in assay [2], in [3], in [4] and in assay [5] was above 100 µM each time. The TGI is 70.7 µM in assay [6], above 100 µM in assay [7] and above 100 µM in assay [8].

As for `C[n+]1cc2cc3c(cc2c2ccccc21)OCO3`, the GI50 in [1] was 4.49 µM; in [10], 0.982 µM; in assay [2], 2.37 µM; in assay [3], 3.78 µM; in [5], 5.32 µM; in [6], 3.51 µM. Moreover, the GI50 was 0.48 µM in assay [7], 4.83 µM in assay [8] and 3.12 µM in assay [9]. Besides, the TGI in assay [1] is 25.9 µM; in [10], 58 µM; in [2], 13.6 µM; in assay [3], 36 µM; in [5] it was 21 µM; in assay [6] it was 11.3 µM. Also, the TGI came out at 2.57 µM in assay [7], 23.8 µM in assay [8] and 26.4 µM in assay [9].

`Clc1ccc(-c2nc(C(Cl)Cl)nc3cc(-c4ccccc4)nn23)cc1`: the GI50 in assay [1] is 0.516 µM; in assay [10], 2.4 µM; in [2] it was 0.947 µM; in [3], 0.917 µM; in assay [5], 1.8 µM; in assay [6] it was above 50 µM. In addition, the GI50 in assay [7] is 1.7 µM; in assay [8] it was 2.34 µM; in assay [9], 1.74 µM. Also, the TGI in [1] is 2.02 µM; in [10], above 50 µM; in assay [2], 2.64 µM; in assay [3], 3.63 µM; in assay [5], above 50 µM; in assay [6], above 50 µM. Also, the TGI in [7], in assay [8] and in [9] was above 50 µM throughout.

On to `CC(=O)N1N=C(c2ccc(Nc3nc(Nc4ccc(F)cc4)nc(Nc4ccc(Cl)cc4)n3)cc2)CC1c1ccc(N(C)C)cc1` (configuration not stated), for which the GI50 in assay [1] was 10.2 µM; in assay [10], 2.96 µM; in [2], 2.96 µM; in assay [3], 4.41 µM; in [4] it was 5.04 µM; in assay [5], 5.68 µM. The figures for the GI50 in [7], in assay [8] and in assay [9] were 12.1 µM, 15.8 µM and 3.18 µM, respectively. Further, the TGI in assay [1] was 39 µM; in assay [10], 15.8 µM; in assay [2] it was 16.1 µM; in assay [3] it was above 100 µM; in [4] it was 15.7 µM; in [5], 20.9 µM. Besides, the TGI in assay [7] was 49.2 µM; in assay [8], above 63.9 µM; in [9] it was above 64.8 µM.

Take `CC(C)C[C@H]1C(=O)N2CCC[C@H]2[C@]2(O)O[C@](NC(=O)[C@@H]3C=C4c5cccc6[nH]c(Br)c(c56)C[C@H]4N(C)C3)(C(C)C)C(=O)N12`: the TGI was above 100 µM in assay [1]; above 100 µM in assay [10]; above 100 µM in assay [3]; 28.1 µM in [4]; above 100 µM in assay [5]; above 100 µM in assay [6]. Further, the TGI in assay [7], in [8] and in assay [9] was above 100 µM throughout.

Regarding `Cc1cc(S(=O)(=O)Nc2nc3ccccc3[nH]2)c(SCc2ccccc2)cc1Cl`, the GI50 in assay [1] was above 100 µM; in assay [10], 82 µM; in [2], 54.9 µM; in [4], above 100 µM; in assay [5], above 100 µM; in [6] it was above 100 µM. The GI50 was above 100 µM in assay [7], 19.8 µM in assay [8] and above 100 µM in assay [9]. In addition, the TGI in assay [1], in [10], in assay [2], in [4], in assay [5] and in assay [6] was above 100 µM throughout. Also, the values for the TGI in assay [7], in assay [8] and in assay [9] were above 100 µM, 52.8 µM and above 100 µM, respectively.
